Calls of active or inactive are those of the source. The calls are words filed in the database; no cut-off is given here.
Key:
[1] = Half life in Sprague-Dawley rat at 10 mg/kg, ip measured for 24 hrs; type: ADME, organism-based; details: in vivo
[2] = Toxicity in SCID-CB17 mouse xenografted with human MOLT-4 cells assessed as body weight loss at 10 mg/kg, ip for 18 days; type: organism-based; details: in vivo, 432 h, time 18 day
MOLT-4 [3] = assay: Antitumor activity against human MOLT-4 cells xenografted in SCID-CB17 mouse at 10 mg/kg, ip for 18 days relative to control; type: functional; details: MOLT-4, 432 h, time 18 day, read-out: TGI
MOLT-4 [4] = assay: Induction of cell cycle arrest in human MOLT-4 cells assessed as accumulation at G2/M phase incubated for 24 hrs by PI staining based flow cytometry; type: functional; details: dose <= 900.0 nM
[5] = Half life in Sprague-Dawley rat at 5 mg/kg, iv measured for 24 hrs; type: ADME, organism-based; details: in vivo
[6] = target: T1, E3 ubiquitin-protein ligase RNF126/Serine/threonine-protein kinase RIO2 (Homo sapiens, UniProt Q9BVS4+Q9BV68); assay: Molecular glue degradation activity at RNF126/RIOK2 in human ASPC1 cells assessed as induction protein degradation by immunoblot analysis; type: cell-based
Target sequence in this assay (Q9BVS4 whole entry): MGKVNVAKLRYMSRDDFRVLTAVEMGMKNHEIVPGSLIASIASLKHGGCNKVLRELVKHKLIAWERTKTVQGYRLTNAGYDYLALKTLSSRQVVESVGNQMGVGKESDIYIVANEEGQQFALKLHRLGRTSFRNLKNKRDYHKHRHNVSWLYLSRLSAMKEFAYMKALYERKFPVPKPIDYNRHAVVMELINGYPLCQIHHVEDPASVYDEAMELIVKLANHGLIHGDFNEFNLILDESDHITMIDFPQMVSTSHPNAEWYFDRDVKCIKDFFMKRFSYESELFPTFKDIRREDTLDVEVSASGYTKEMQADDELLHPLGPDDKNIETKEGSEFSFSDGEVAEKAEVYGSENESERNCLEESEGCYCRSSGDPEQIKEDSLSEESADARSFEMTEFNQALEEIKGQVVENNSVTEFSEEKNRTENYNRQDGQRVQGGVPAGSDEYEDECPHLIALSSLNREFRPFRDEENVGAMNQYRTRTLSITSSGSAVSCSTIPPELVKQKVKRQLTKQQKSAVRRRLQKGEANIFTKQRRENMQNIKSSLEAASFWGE
Target sequence in this assay (Q9BV68 whole entry): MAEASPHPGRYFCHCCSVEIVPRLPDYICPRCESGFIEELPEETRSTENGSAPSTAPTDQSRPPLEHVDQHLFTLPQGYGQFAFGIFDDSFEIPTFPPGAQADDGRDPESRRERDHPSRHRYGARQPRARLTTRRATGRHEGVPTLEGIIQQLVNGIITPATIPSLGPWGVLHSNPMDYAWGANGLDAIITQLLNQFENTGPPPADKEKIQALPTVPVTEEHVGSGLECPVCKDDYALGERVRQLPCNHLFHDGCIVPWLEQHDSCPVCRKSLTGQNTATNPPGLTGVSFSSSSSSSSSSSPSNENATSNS

[7] = target: T1, E3 ubiquitin-protein ligase RNF126/Serine/threonine-protein kinase RIO2; assay: Molecular glue degradation activity at RNF126/RIOK2 in human A549 cells assessed as induction protein degradation by immunoblot analysis; type: cell-based
Target sequence in this assay (Q9BVS4 whole entry): as the sequence (Q9BVS4 whole entry) above
Target sequence in this assay (Q9BV68 whole entry): as the sequence (Q9BV68 whole entry) above

[8] = Oral bioavailability in Sprague-Dawley rat at 10 mg/kg measured for 24 hrs; type: ADME, organism-based; details: in vivo
[9] = target: T1, E3 ubiquitin-protein ligase RNF126/Serine/threonine-protein kinase RIO2; assay: Molecular glue degradation activity at RNF126/RIOK2 in human OCILY3 cells assessed as induction protein degradation by immunoblot analysis; type: cell-based
Target sequence in this assay (Q9BVS4 whole entry): as the sequence (Q9BVS4 whole entry) above
Target sequence in this assay (Q9BV68 whole entry): as the sequence (Q9BV68 whole entry) above

[10] = target: T1, E3 ubiquitin-protein ligase RNF126/Serine/threonine-protein kinase RIO2; assay: Molecular glue degradation activity at RNF126/RIOK2 in human U-937 cells assessed as induction protein degradation by immunoblot analysis relative to control; type: cell-based
Target sequence in this assay (Q9BV68 2-311 partner limits assumed): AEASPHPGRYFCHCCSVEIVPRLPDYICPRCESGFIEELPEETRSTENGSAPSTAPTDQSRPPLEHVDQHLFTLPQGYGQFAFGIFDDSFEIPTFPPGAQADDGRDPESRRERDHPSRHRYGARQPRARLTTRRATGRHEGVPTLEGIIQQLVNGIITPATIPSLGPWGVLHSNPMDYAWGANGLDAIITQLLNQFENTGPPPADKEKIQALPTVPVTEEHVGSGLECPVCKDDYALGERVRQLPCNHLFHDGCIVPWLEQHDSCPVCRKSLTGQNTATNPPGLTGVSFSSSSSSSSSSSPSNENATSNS
Target sequence in this assay (Q9BVS4 whole entry): as the sequence (Q9BVS4 whole entry) above

[11] = target: T1, E3 ubiquitin-protein ligase RNF126/Serine/threonine-protein kinase RIO2; assay: Molecular glue degradation activity at RNF126/RIOK2 in human MOLT-4 cells assessed as induction protein degradation at 1 uM incubated for 24 hrs by immunoblot analysis relative to control; type: cell-based
Target sequence in this assay (Q9BV68 2-311 partner limits assumed): as the sequence (Q9BV68 2-311 partner limits assumed) above
Target sequence in this assay (Q9BVS4 whole entry): as the sequence (Q9BVS4 whole entry) above

[12] = Antiproliferative activity against HEK293 cells incubated for 72 hrs by CCK8 assay; type: toxicity, cell-based; details: human
MOLT-4 [13] = assay: Induction of apoptosis in human MOLT-4 cells assessed as increase in cleaved caspase-9 level by Western blot analysis; type: functional, cell-based; details: dose <= 900.0 nM
[14] = target: T1, E3 ubiquitin-protein ligase RNF126/Serine/threonine-protein kinase RIO2; assay: Molecular glue degradation activity at RNF126/RIOK2 in human MOLT-4 cells assessed as induction protein degradation incubated for 12 hrs by immunoblot analysis; type: cell-based
[15] = target: T1, E3 ubiquitin-protein ligase RNF126/Serine/threonine-protein kinase RIO2; assay: Molecular glue degradation activity at RNF126/RIOK2 in human MOLT-4 cells assessed as decrease in mTOR level at 500 nM incubated for 12 hrs by immunoblot analysis; type: cell-based
Target sequence in this assay (Q9BV68 2-311 partner limits assumed): as the sequence (Q9BV68 2-311 partner limits assumed) above
Target sequence in this assay (Q9BVS4 whole entry): as the sequence (Q9BVS4 whole entry) above

[16] = target: T1, E3 ubiquitin-protein ligase RNF126/Serine/threonine-protein kinase RIO2; assay: Molecular glue degradation activity at RNF126/RIOK2 in human HeLa cells assessed as induction protein degradation by immunoblot analysis relative to control; type: cell-based
Target sequence in this assay (Q9BV68 2-311 partner limits assumed): as the sequence (Q9BV68 2-311 partner limits assumed) above
Target sequence in this assay (Q9BVS4 whole entry): as the sequence (Q9BVS4 whole entry) above

[17] = target: T1, E3 ubiquitin-protein ligase RNF126/Serine/threonine-protein kinase RIO2; assay: Molecular glue degradation activity at RNF126/RIOK2 in HEK293 cells assessed as induction protein degradation by immunoblot analysis; type: cell-based
Target sequence in this assay (Q9BVS4 whole entry): as above
Target sequence in this assay (Q9BV68 whole entry): as the sequence (Q9BV68 whole entry) above

MOLT-4 [18] = assay: Induction of apoptosis in human MOLT-4 cells incubated for 48 hrs by Annexin V-FITC/PI staining based flow cytometry; type: functional, cell-based; details: dose <= 900.0 nM
[19] = target: T1, E3 ubiquitin-protein ligase RNF126/Serine/threonine-protein kinase RIO2; assay: Molecular glue degradation activity at RNF126/RIOK2 in CHX-treated human MOLT-4 cells assessed as half life of RIOK2 at 2 uM by immunoblot analysis (reference value: 12.5 hrs); type: cell-based
Target sequence in this assay (Q9BV68 2-311 partner limits assumed): as the sequence (Q9BV68 2-311 partner limits assumed) above
Target sequence in this assay (Q9BVS4 whole entry): as the sequence (Q9BVS4 whole entry) above

MOLT-4 [20] = assay: Induction of apoptosis in human MOLT-4 cells assessed as decrease in PARP level by Western blot analysis; type: functional, cell-based; details: dose <= 900.0 nM
U-937 = assay: Antiproliferative activity against human U-937 cells incubated for 72 hrs by CCK8 assay; type: functional, cell-based; details: U-937, 72 h
[21] = AUClast in Sprague-Dawley rat at 5 mg/kg, iv measured for 24 hrs; type: ADME, organism-based; details: in vivo
[22] = target: T1, E3 ubiquitin-protein ligase RNF126/Serine/threonine-protein kinase RIO2; assay: Molecular glue degradation activity at RNF126/RIOK2 in JP-2-196-treated human MOLT-4 cells assessed as induction protein degradation at 1 uM incubated for 12 hrs by immunoblot analysis; type: cell-based
Target sequence in this assay (Q9BV68 2-311 partner limits assumed): as the sequence (Q9BV68 2-311 partner limits assumed) above
Target sequence in this assay (Q9BVS4 whole entry): as the sequence (Q9BVS4 whole entry) above

[23] = target: T1, E3 ubiquitin-protein ligase RNF126/Serine/threonine-protein kinase RIO2; assay: Molecular glue degradation activity at RNF126/RIOK2 in human OCILY3 cells assessed as induction protein degradation by immunoblot analysis relative to control; type: cell-based
MOLT-4 [24] = assay: Induction of cell cycle arrest in human MOLT-4 cells assessed as decrease in cyclin B1 level by Western blot analysis; type: functional, cell-based; details: dose <= 900.0 nM
[25] = target: T1, E3 ubiquitin-protein ligase RNF126/Serine/threonine-protein kinase RIO2; assay: Molecular glue degradation activity at RNF126/RIOK2 in human HL-60 cells assessed as induction protein degradation by immunoblot analysis; type: cell-based
Target sequence in this assay (Q9BVS4 whole entry): as above
Target sequence in this assay (Q9BV68 whole entry): as the sequence (Q9BV68 whole entry) above

[26] = target: T1, E3 ubiquitin-protein ligase RNF126/Serine/threonine-protein kinase RIO2; assay: Molecular glue degradation activity at RNF126/RIOK2 in human MOLT-4 cells assessed as decrease in AKT level at 500 nM incubated for 12 hrs by immunoblot analysis; type: cell-based
ASPC1 = assay: Antiproliferative activity against human ASPC1 cells incubated for 72 hrs by CCK8 assay; type: functional, cell-based; details: ASPC1, 72 h
Mus musculus = assay: In vivo molecular glue degradation activity at RNF126/RIOK2 in SCID-CB17 mouse xenografted with human MOLT-4 cells assessed as induction of RIOK2 degradation in tumor at 10 mg/kg, ip for 18 days measured after 4 hrs post-last dose; type: functional, organism-based; details: time 436.0 hrs
MOLT-4 [27] = assay: Induction of cell cycle arrest in human MOLT-4 cells assessed as accumulation at G2/M phase at 900 nM incubated for 24 hrs by PI staining based flow cytometry relative to control; type: functional
[28] = Antiproliferative activity against mouse NIH3T3 cells incubated for 72 hrs by CCK8 assay; type: toxicity, cell-based
[29] = Cmax in Sprague-Dawley rat at 10 mg/kg, ip measured for 24 hrs; type: ADME, organism-based; details: in vivo
A549 = assay: Antiproliferative activity against human A549 cells incubated for 72 hrs by CCK8 assay; type: functional, cell-based; details: A549, 72 h
[30] = target: T1, E3 ubiquitin-protein ligase RNF126/Serine/threonine-protein kinase RIO2; assay: Molecular glue degradation activity at RNF126/RIOK2 in human HeLa cells assessed as induction protein degradation by immunoblot analysis; type: cell-based
Target sequence in this assay (Q9BVS4 whole entry): as the sequence (Q9BVS4 whole entry) above
Target sequence in this assay (Q9BV68 whole entry): as the sequence (Q9BV68 whole entry) above

MOLT-4 [31] = assay: Antiproliferative activity against human MOLT-4 cells incubated for 72 hrs by CCK8 assay; type: functional, cell-based; details: MOLT-4, 72 h
[32] = Antiproliferative activity against human MRC5 cells incubated for 72 hrs by CCK8 assay; type: toxicity, cell-based
[33] = target: T1, E3 ubiquitin-protein ligase RNF126/Serine/threonine-protein kinase RIO2; assay: Molecular glue degradation activity at RNF126/RIOK2 in MLN4924-treated human MOLT-4 cells assessed as induction protein degradation at 1 uM incubated for 12 hrs by immunoblot analysis; type: cell-based
K562 = assay: Antiproliferative activity against human K562 cells incubated for 72 hrs by CCK8 assay; type: functional, cell-based; details: K562, 72 h
[34] = target: T1, E3 ubiquitin-protein ligase RNF126/Serine/threonine-protein kinase RIO2; assay: Molecular glue degradation activity at RNF126/RIOK2 in human K562 cells assessed as induction protein degradation by immunoblot analysis; type: cell-based
[35] = Cmax in Sprague-Dawley rat at 5 mg/kg, iv measured for 24 hrs; type: ADME, organism-based; details: in vivo
HeLa = assay: Antiproliferative activity against human HeLa cells incubated for 72 hrs by CCK8 assay; type: functional, cell-based
[36] = target: T1, E3 ubiquitin-protein ligase RNF126/Serine/threonine-protein kinase RIO2; assay: Molecular glue degradation activity at RNF126/RIOK2 in human MOLT-4 cells assessed as induction protein degradation incubated for 12 hrs by immunoblot analysis relative to control; type: cell-based
[37] = target: T1, E3 ubiquitin-protein ligase RNF126/Serine/threonine-protein kinase RIO2; assay: Molecular glue degradation activity at RNF126/RIOK2 in human MOLT-4 cells assessed as induction protein degradation at 1 uM incubated for 12 hrs by immunoblot analysis; type: cell-based

half-life [1]: 8.1 h | half-life [5]: 0.6 h | DC50 [6]: > 10000 nM | DC50 [7]: > 10000 nM | bioavailability [8]: 49.7% | DC50 [9]: 450 nM | Emax [10]: 60.4% | Emax [11]: 94.8% | DC50 [14]: 410 nM | Activity ([14]; dose <= 10.0 µM): Dose-dependent-effect | Activity [15]: Active | Emax [16]: 50.3% | DC50 [17]: > 10000 nM | T1/2 [19]: 9.6 h | IC50 (U-937): 410 nM | AUClast [21]: 1210 ng·h/mL | Activity [22]: inactive | Emax [23]: 66.9% | DC50 [25]: 550 nM | Activity [26]: Active | IC50 (ASPC1): 1130 nM | Cmax [29]: 90.6 ng/mL | IC50 (A549): 1060 nM | DC50 [30]: 8700 nM | IC50 (MOLT-4 [31]): 130 nM | Activity [33]: inactive | IC50 (K562): 1140 nM | DC50 [34]: > 10000 nM | Cmax [35]: 1440 ng/mL | IC50 (HeLa): 580 nM | Emax [36]: 83.4% | Activity [37]: Active
Structure (SMILES): COc1ccc(-c2ccc3[nH]c(=O)c4nnn(-c5ccc(N6CCN(C(=O)/C=C/C(=O)c7ccc(F)cc7)CC6)c(C(F)(F)F)c5)c4c3c2)cn1
Activity [2]: Non-toxic | inhibition in vivo at 10 mg/kg (MOLT-4 [3]): 18.6% | Activity (MOLT-4 [4]): Dose-dependent-effect | IC50 at 72 h [12]: 1050 nM | Activity (MOLT-4 [13]): Dose-dependent-effect | Activity (MOLT-4 [18]): Dose-dependent-effect | Activity (MOLT-4 [20]): Dose-dependent-effect | Activity (MOLT-4 [24]): Dose-dependent-effect | Activity (Mus musculus): Active | Activity (MOLT-4 [27]): 39.6% | IC50 at 72 h [28]: 1060 nM | IC50 at 72 h [32]: 1090 nM
